Assay results reported in PMC6826616, “Topical 2′-Hydroxyflavanone for Cutaneous Melanoma” (Cancers, 2019).

Legend:
Format in all cases: cell-based
SK-MEL-24 cells = test: MTT cytotoxicity assay, SK-MEL-24; details: Homo sapiens, Table 1, agent alone, read-out: IC50
Excerpt: (§1) We studied the growth-inhibitory effects of 2HF on the B16-F0 and B16-F10 murine melanoma cell lines as well as on the SK-MEL-24 human melanoma cell line. B16-F10 and SK-MEL-24 have been shown in previous studies to be highly resistant to treatment and much more invasive than B16-F0 [32]. […] The absorption value measured upon reduction of the MTT dye by functional mitochondria is an indirect measure of cell number that cannot distinguish inhibited cell proliferation from apoptotic or necrotic cell death. By counting viable (trypan-blue dye-excluding) cells using a hemacytometer, we verified that 2HF did indeed cause cell death.
(§2) Figure 1 Mouse and human melanoma cell survival following 2′-hydroxyflavanone (2HF) treatment.
(§3) The IC50 of 2HF on B16-F0, B16-F10, and SK-MEL-24 cells was determined by MTT cytotoxicity assay. Cells were harvested and Trypan Blue dye exclusion test was used to determine the number of viable cells present in a cell suspension using a hemocytometer. The cell suspension was diluted to 5 × 10^4 cells/mL with Dulbecco’s Modified Eagle’s Medium (DMEM) complete medium and 5000 cells/well were plated in 96-well plates. After 24 h incubation at 37 °C, cells were treated with 2HF concentrations ranging from 0–200 µM (8 replicates per plate). After 48 or 72 h incubation, 40 µL of MTT (5 mg/mL) solution was added. After 4 h incubation, the plate was centrifuged at 700× g for 5 min and medium was aspirated completely. Then, 50 µL DMSO was added to each well to dissolve the purple precipitate on the rocking platform for about 15 min. The absorbance was then measured at 490 nm using a 96-well microplate reader (Spectramax Plus, Molecular Devices, Inc, San Jose, CA, USA).

B16-F10 cells = test: MTT cytotoxicity assay, B16-F10; details: Mus musculus, Table 1, agent alone, read-out: IC50
Excerpt: as §1, §2, §3

B16-F0 cells = test: MTT cytotoxicity assay, B16-F0; details: Mus musculus, B16F0; Table 1, agent alone; read-out: IC50
Excerpt: as §1, §2, §3

For `COC1CCN(C(=O)c2cc(Cc3n[nH]c(=O)c4ccccc34)ccc2F)CC1` [PARP1i, AZD 2461, reference compound], the IC50 (SK-MEL-24 cells) was 55 ± 23.9 µM, the IC50 (B16-F10 cells) was 29.9 ± 28.5 µM and the IC50 (B16-F0 cells) was 16.5 ± 4.86 µM.
